Marks after values point to notes of the source that are not given here.
How the values were obtained:
[1] = tested on: serotonin plasma concentration; experiment: Change in serotonin plasma concentration of healthy subjects after oral homoeriodictyol (crossover human intervention); assay type: in vivo; conditions: 30 mg oral in 125 ml of water, on average 37 minutes after administration, n=10, water control −6.81 ± 10.6, p<0.05
Experimental: In order to determine the serotonin plasma concentration, whole blood is taken from healthy subjects in each case on a test day before and on average 37 minutes after administration of the test solution (1st test day: 125 ml of water; 2nd test day: 30 mg of homoeriodictyol dissolved in 125 ml of water).
The plasma is obtained from the whole blood by refrigerated centrifugation for 15 minutes at 1800×g, and the serotonin concentration in the plasma is determined by an enzyme-based detection method (Serotonin ELISA, DLD Diagnostika, Germany).
(§1) The change in the serotonin plasma concentration before and after administration of 125 ml of water or 30 mg of homoeriodictyol dissolved in 125 ml of water is shown in Table 2. There is a significant difference between the two treatments (p<0.05; n=10), which was determined by a dependent, two-sided Student's T-test and is marked *.

3T3-L1 adipocytes = experiment: Fatty acid uptake in 3T3-L1 adipocytes (QBT Fatty Acid Uptake kit); assay type: cell-based; conditions: 30 min preincubation, AUC of fluorescence over one hour vs EtOH control
Experimental: 3T3-L1 preadipocytes (ATCC CL-173) are used as the cell model for the uptake of free fatty acid into peripheral cells, here adipocytes. Cultivation is carried out at 37° C. and 5% CO2 content in DMEM culture medium to which 10% FBS 4% L-glutamine and 1% penicillin/streptomycin have been added. In order to measure the fatty acid uptake, the 3T3-L1 cells are differentiated in 175 cm^2 cell culture bottles from fully matured adipocytes. To that end, two days after reaching confluence, the cells are stimulated to differentiate for 48 hours by the addition of 10 μg/ml insulin, 1 μM dexamethasone and 0.5 mM isobutyl methyl xanthine from the culture medium. After the cells have been treated for a further 48 hours with 10 μg/ml insulin in the cell culture medium, normal culture medium is again used until the adipocytes are fully mature. The cells are usually used for the test seven to nine days after the onset of differentiation. To that end, the cells are harvested with trypsin and, after a positive vitality test with trypan blue, scattered in a 96-well plate at a rate of 65,000 cells per well. Measurement of the fatty acid uptake is carried out after a 60-minute synchronization of the cells by removal of the fetal bovine serum and a 30-minute preincubation with Hank's balanced salt solution, to which 20 mM HEPES (HBSS/HEPES), with or without the addition of from 0.01 to 10 μM of homoeriodictyol, by means of a fluorescence-labeled fatty acid analog (QBT Fatty Acid Uptake kit, Molecular Devices, Germany), have been added. The change in the area under the curve formed by the increase in the fluorescence signal over the course of one hour is shown in % in comparison with the control. The change in the fatty acid uptake in 3T3-L1 adipocytes after preincubation for 30 minutes with HESS/HEPES buffer with 0.1% ethanol (control) or 0.01-10 μM homoeriodictyol dissolved in HBSS/HEPES buffer is shown in Table 4. Significant differences (p<0.001) relative to the control were tested with a single-factor ANOVA against the control with a subsequent Dunn's post hoc test and are marked ***. Mean values from 3-4 independent experiments with in each case 3 repetitions are shown.

[2] = tested on: Human neuroblastoma cells (SH-SY5Y); experiment: Serotonin release from SH-SY5Y cells (Serotonin-ELISA, normalised to DNA content); assay type: cell-based; conditions: 5 min stimulation, relative to control (0.1% EtOH)
Experimental: Human neuroblastoma cells (SH-SY5Y, ATCC number CRL-2266) are used as the cell model for the release of the neurotransmitter serotonin. Cultivation takes place at 37° C. and 5% CO2 content with a mixture consisting of equal parts of Eagle's minimal essential medium (MEM) and F12 medium (in each case with 10% FBS and 1 penicillin/streptomycin). For measurement of the serotonin release, the cells are harvested with trypsin and, after a vitality test by trypan blue staining, sown in 35 mm cell culture dishes in a defined cell number.
After stimulation of 1.25*10^6 human neuroblastoma cells (SH-SY5Y) for 5 minutes with 300 μl of Krebs-Ringer-HEPES buffer, 0.1% ascorbic acid, pH 6.2, with or without addition of the homoeriodictyol, wherein concentrations of 0.001 μM, 0.01 μM, 0.1 μM, 1 μM and 10 μM in the Krebs-Ringer-HEPES buffer are established when the homoeriodictyol is added, the serotonin content is determined by means of an enzyme-based detection method (Serotonin-ELISA sensitive, DLD Diagnostica, Hamburg, Germany). The cells are lyzed with a buffer containing sodium lauroyl sarcosinate and the DNA content is determined by means of a NanoQuant plate (Tecan, Ménnendorf, Switzerland) for normalization of the serotonin release.
The results are shown in % relative to the control (buffer with 0.1% ethanol). n=3, tR=2. Significant differences in the treatments relative to the control were tested with a single-factor ANOVA with a subsequent Holm-Sidak post hoc test against the control and marked according to the following scheme: * p≤0.05; ** p≤0.01; *** p≤0.001. Concentration-dependent differences were tested with a single-factor ANOVA with a subsequent Holm-Sidak post hoc test and identified by different letters (a, b), wherein no common letter marks a significant difference.

[3] = tested on: serotonin plasma concentration; experiment: Absolute plasma serotonin concentration after oral administration of 30 mg of homoeriodictyol; assay type: in vivo, human; conditions: after oral administration of 30 mg in 125 ml of water, on average 35 minutes, healthy subjects, n=16; before administration 306 ± 152; p<0.05
Experimental: In order to determine the serotonin plasma concentration, whole blood is taken from healthy subjects on a test day before and on average 35 minutes after administration of 30 mg of homoeriodictyol dissolved in 125 ml of water. The plasma is obtained from the whole blood by refrigerated centrifugation for 15 minutes at 1800×g, and the serotonin concentration in the plasma is determined by an enzyme-based detection method (Serotonin-ELISA, DLD Diagnostika, Germany).
as §1, with “of” for “of 125 ml of water or”, “3.” for “2.”, “(p<0.05, n=16),” for “(p<0.05; n=10),”

COc1cc(C2CC(=O)c3c(O)cc(O)cc3O2)ccc1O (centres unmarked) [Homoeriodictyol, homoeriodictyol]
Change in the serotonin concentration in the plasma after administration of the test solution [1]: −19.1 ± 10.6 | Change in fatty acid uptake (3T3-L1 adipocytes; 0.01 μM): 4.34% | Change in fatty acid uptake (3T3-L1 adipocytes; 0.1 μM, p<0.001): 8.78*** % | Change in fatty acid uptake (3T3-L1 adipocytes; 1 μM): 4.10% | Change in fatty acid uptake (3T3-L1 adipocytes; 10 μM): −0.47% | Serotonin release T/C ([2]; 0.001 μM): 62.2% | Serotonin release T/C ([2]; 0.01 μM): 42.9% | Serotonin release T/C ([2]; 0.1 μM): 42.6% | Serotonin release T/C ([2]; 1 μM): 43.5% | Serotonin release T/C ([2]; 10 μM): 71.9% | Serotonin concentration in the plasma [3]: 192 ± 122 nmol

From patent US10561633B2, “Hydroxyflavanones as appetite stimulants” (Symrise AG, priority 2014, dated 2020)
